{
  "source": "patent US11053242B2",
  "about": "“[9,10-dimethoxy-3-(2-methylpropyl)-1H,2H,3H,4H,6H,7H,11BH-pyrido-[2,1-a]isoquinolin-2-yl]methanol and compounds, compositions and methods relating thereto” (Neurocrine Biosciences, Inc., priority 2015, dated 2021)",
  "molecular_target": "VMAT2 (human platelet homogenate) (Homo sapiens (Human), UniProt Q05940)",
  "sequence (Q05940 whole entry)": "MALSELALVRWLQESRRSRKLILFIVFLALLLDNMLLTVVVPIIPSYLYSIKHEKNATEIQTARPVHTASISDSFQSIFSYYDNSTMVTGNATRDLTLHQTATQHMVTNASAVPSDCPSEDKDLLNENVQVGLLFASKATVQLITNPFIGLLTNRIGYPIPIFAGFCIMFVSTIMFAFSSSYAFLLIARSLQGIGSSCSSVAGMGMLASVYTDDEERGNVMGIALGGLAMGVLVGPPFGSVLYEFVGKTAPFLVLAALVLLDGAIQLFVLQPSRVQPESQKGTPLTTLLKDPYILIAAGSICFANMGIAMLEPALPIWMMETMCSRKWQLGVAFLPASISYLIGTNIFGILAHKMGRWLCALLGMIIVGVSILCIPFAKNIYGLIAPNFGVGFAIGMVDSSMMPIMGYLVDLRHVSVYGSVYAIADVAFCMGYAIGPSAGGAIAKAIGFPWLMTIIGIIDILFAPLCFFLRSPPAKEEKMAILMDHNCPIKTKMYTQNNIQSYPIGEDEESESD",
  "assay": "Human VMAT2 Ki, slightly modified competition binding procedure (Table 11);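 also: competition binding with 90 min incubation at 25 °C, after which filter-retained radioligand was measured by scintillation counting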",
  "settings": "10 nM 3H-dihydrotetrabenazine",
  "procedure": "Following incubation at 25° C. for 90 minutes, bound radioligand was collected by rapid filtration onto GF/B glass fiber filters using a Unifilter-96 Harvester (PerkinElmer). Filter plates were pre-treated with 0.1% polyethylenimine and allowed to dry overnight, and following harvesting the filter plates were washed with 800 d VMAT2 binding buffer. Bound radioligand was quantified by scintillation counting using a Topcount NXT (PerkinElmer).",
  "data": [
    {"smiles": "COc1cc2c(cc1OC)[C@H]1C[C@@H](COC(=O)N3CC(C)NCC3C)[C@H](CC(C)C)CN1CC2", "note": "(stereo partly drawn) [Compound 6-14, [(2R,3S,11bR)-9,10-dimethoxy-3-(2-methylpropyl)-1H,2H,3H,4H,6H,7H,11bH-pyrido[2,1-a]isoquinolin-2-yl]methyl 2,5-dimethylpiperazine-1-carboxylate]", "values": [
      {"measurement": "Ki", "result": "< 10", "unit": "nM"}
    ]},
    {"smiles": "COc1cc2c(cc1OC)[C@H]1C[C@@H](COC(=O)[C@@H]3CCCC[C@H]3N)[C@H](CC(C)C)CN1CC2", "note": "[Compound 4-4, [(2R,3S,11bR)-9,10-dimethoxy-3-(2-methylpropyl)-1H,2H,3H,4H,6H,7H,11bH-pyrido[2,1-a]isoquinolin-2-yl]methyl (1R,2R)-2-aminocyclohexane-1-carboxylate]", "values": [
      {"measurement": "Ki", "result": "< 10", "unit": "nM"}
    ]},
    {"smiles": "COc1cc2c(cc1OC)[C@H]1C[C@@H](COC(=O)CCN)[C@H](CC(C)C)CN1CC2", "note": "[Compound 4-24, [(2R,3S,11bR)-9,10-dimethoxy-3-(2-methylpropyl)-1H,2H,3H,4H,6H,7H,11bH-pyrido[2,1-a]isoquinolin-2-yl]methyl 3-aminopropanoate]", "values": [
      {"measurement": "Ki", "result": "< 10", "unit": "nM"}
    ]},
    {"smiles": "COc1cc2c(cc1OC)[C@H]1C[C@@H](COC(=O)C(N)c3ccccc3OC)[C@H](CC(C)C)CN1CC2", "note": "(stereo partly drawn) [Compound 4-19, [(2R,3S,11bR)-9,10-dimethoxy-3-(2-methylpropyl)-1H,2H,3H,4H,6H,7H,11bH-pyrido[2,1-a]isoquinolin-2-yl]methyl 2-amino-2-(2-methoxyphenyl)acetate]", "values": [
      {"measurement": "Ki", "result": "10 to 500", "unit": "nM"}
    ]},
    {"smiles": "COc1cc2c(cc1OC)[C@H]1C[C@@H](COC(=O)C[C@H]3CCCN3)[C@H](CC(C)C)CN1CC2", "note": "[Compound 4-23, [(2R,3S,11bR)-9,10-dimethoxy-3-(2-methylpropyl)-1H,2H,3H,4H,6H,7H,11bH-pyrido[2,1-a]isoquinolin-2-yl]methyl 2-[(2R)-pyrrolidin-2-yl]acetate]", "values": [
      {"measurement": "Ki", "result": "< 10", "unit": "nM"}
    ]},
    {"smiles": "COc1cc2c(cc1OC)[C@H]1C[C@@H](COC(=O)N3CCN(C4CCCCC4)CC3)[C@H](CC(C)C)CN1CC2", "note": "[Compound 5-18, [(2R,3S,11bR)-9,10-dimethoxy-3-(2-methylpropyl)-1H,2H,3H,4H,6H,7H,11bH-pyrido[2,1-a]isoquinolin-2-yl]methyl 4-cyclohexylpiperazine-1-carboxylate]", "values": [
      {"measurement": "Ki", "result": "< 10", "unit": "nM"}
    ]},
    {"smiles": "COc1cc2c(cc1OC)[C@H]1C[C@@H](COC(=O)N3CCN(S(C)(=O)=O)CC3)[C@H](CC(C)C)CN1CC2", "note": "[Compound 5-15, [(2R,3S,11bR)-9,10-dimethoxy-3-(2-methylpropyl)-1H,2H,3H,4H,6H,7H,11bH-pyrido[2,1-a]isoquinolin-2-yl]methyl 4-methanesulfonylpiperazine-1-carboxylate]", "values": [
      {"measurement": "Ki", "result": "10 to 500", "unit": "nM"}
    ]},
    {"smiles": "COc1cc2c(cc1OC)[C@H]1C[C@@H](COC(=O)C3C(C)(C)C3(C)C)[C@H](CC(C)C)CN1CC2", "note": "[Compound 2-38, [(2R,3S,11bR)-9,10-dimethoxy-3-(2-methylpropyl)-1H,2H,3H,4H,6H,7H,11bH-pyrido[2,1-a]isoquinolin-2-yl]methyl 2,2,3,3-tetramethylcyclopropane-1-carboxylate]", "values": [
      {"measurement": "Ki", "result": "10 to 500", "unit": "nM"}
    ]},
    {"smiles": "COc1cc2c(cc1OC)[C@H]1C[C@@H](COC(=O)CC(N)=O)[C@H](CC(C)C)CN1CC2", "note": "[Compound 2-9, [(2R,3S,11bR)-9,10-dimethoxy-3-(2-methylpropyl)-1H,2H,3H,4H,6H,7H,11bH-pyrido[2,1-a]isoquinolin-2-yl]methyl 2-carbamoylacetate]", "values": [
      {"measurement": "Ki", "result": "< 10", "unit": "nM"}
    ]},
    {"smiles": "COc1cc2c(cc1OC)[C@H]1C[C@@H](COC(=O)CCN3CCCCC3)[C@H](CC(C)C)CN1CC2", "note": "[Compound 2-19, [(2R,3S,11bR)-9,10-dimethoxy-3-(2-methylpropyl)-1H,2H,3H,4H,6H,7H,11bH-pyrido[2,1-a]isoquinolin-2-yl]methyl 3-(piperidin-1-yl)propanoate]", "values": [
      {"measurement": "Ki", "result": "< 10", "unit": "nM"}
    ]},
    {"smiles": "COc1cc2c(cc1OC)[C@H]1C[C@@H](COC(=O)CCn3c(=O)[nH]c4ccccc4c3=O)[C@H](CC(C)C)CN1CC2", "note": "[Compound 2-3, [(2R,3S,11bR)-9,10-dimethoxy-3-(2-methylpropyl)-1H,2H,3H,4H,6H,7H,11bH-pyrido[2,1-a]isoquinolin-2-yl]methyl 3-(2,4-dioxo-1,2,3,4-tetrahydroquinazolin-3-yl)propanoate]", "values": [
      {"measurement": "Ki", "result": "< 10", "unit": "nM"}
    ]},
    {"smiles": "COc1cc2c(cc1OC)[C@H]1C[C@@H](COC(=O)CCn3c(=O)oc4ccccc43)[C@H](CC(C)C)CN1CC2", "note": "[Compound 2-39, [(2R,3S,11bR)-9,10-dimethoxy-3-(2-methylpropyl)-1H,2H,3H,4H,6H,7H,11bH-pyrido[2,1-a]isoquinolin-2-yl]methyl 3-(2-oxo-2,3-dihydro-1,3-benzoxazol-3-yl)propanoate]", "values": [
      {"measurement": "Ki", "result": "< 10", "unit": "nM"}
    ]},
    {"smiles": "COc1cc2c(cc1OC)C1CC(COC(=O)C3CC(C)(C)N([O])C3(C)C)C(CC(C)C)CN1CC2", "note": "[Compound 2-27, [3-({[(2R,3S,11bR)-9,10-dimethoxy-3-(2-methylpropyl)-1H,2H,3H,4H,6H,7H,11bH-pyrido[2,1-a]isoquinolin-2-yl]methoxy}carbonyl)-2,2,5,5-tetramethylpyrrolidin-1-yl]oxidanyl]", "values": [
      {"measurement": "Ki", "result": "10 to 500", "unit": "nM"}
    ]},
    {"smiles": "COc1cc2c(cc1OC)[C@H]1C[C@@H](COC(=O)[C@H]3CCCC[C@@H]3N)[C@H](CC(C)C)CN1CC2", "note": "[Compound 4-25, [(2R,3S,11bR)-9,10-dimethoxy-3-(2-methylpropyl)-1H,2H,3H,4H,6H,7H,11bH-pyrido[2,1-a]isoquinolin-2-yl]methyl (1S,2S)-2-aminocyclohexane-1-carboxylate]", "values": [
      {"measurement": "Ki", "result": "10 to 500", "unit": "nM"}
    ]},
    {"smiles": "COc1cc2c(cc1OC)[C@H]1C[C@@H](COC(=O)CC3NC(=O)NC3=O)[C@H](CC(C)C)CN1CC2", "note": "(stereo partly drawn) [Compound 2-30, [(2R,3S,11bR)-9,10-dimethoxy-3-(2-methylpropyl)-1H,2H,3H,4H,6H,7H,11bH-pyrido[2,1-a]isoquinolin-2-yl]methyl 2-(2,5-dioxoimidazolidin-4-yl)acetate]", "values": [
      {"measurement": "Ki", "result": "< 10", "unit": "nM"}
    ]},
    {"smiles": "COc1cc2c(cc1OC)[C@H]1C[C@@H](COC(=O)OC(C)C)[C@H](CC(C)C)CN1CC2", "note": "[Compound 8-1, [(2R,3S,11bR)-9,10-dimethoxy-3-(2-methylpropyl)-1H,2H,3H,4H,6H,7H,11bH-pyrido[2,1-a]isoquinolin-2-yl]methyl propan-2-yl carbonate]", "values": [
      {"measurement": "Ki", "result": "10 to 500", "unit": "nM"}
    ]},
    {"smiles": "COc1cc2c(cc1OC)[C@H]1C[C@@H](COC(=O)CN3C[C@@H](C)O[C@@H](C)C3)[C@H](CC(C)C)CN1CC2", "note": "[Compound 2-8, [(2R,3S,11bR)-9,10-dimethoxy-3-(2-methylpropyl)-1H,2H,3H,4H,6H,7H,11bH-pyrido[2,1-a]isoquinolin-2-yl]methyl 2-[(2R,6S)-2,6-dimethylmorpholin-4-yl]acetate]", "values": [
      {"measurement": "Ki", "result": "< 10", "unit": "nM"}
    ]},
    {"smiles": "COc1cc2c(cc1OC)[C@H]1C[C@@H](COC[C@H]3CCCN3)[C@H](CC(C)C)CN1CC2", "note": "[Compound 10-7, (2R)-2-({[(2R,3S,11bR)-9,10-dimethoxy-3-(2-methylpropyl)-1H,2H,3H,4H,6H,7H,11bH-pyrido[2,1-a]isoquinolin-2-yl]methoxy}methyl)pyrrolidine]", "values": [
      {"measurement": "Ki", "result": "< 10", "unit": "nM"}
    ]},
    {"smiles": "COc1cc2c(cc1OC)[C@H]1C[C@@H](COC(=O)CCn3ccc(C)n3)[C@H](CC(C)C)CN1CC2", "note": "[Compound 2-23, [(2R,3S,11bR)-9,10-dimethoxy-3-(2-methylpropyl)-1H,2H,3H,4H,6H,7H,11bH-pyrido[2,1-a]isoquinolin-2-yl]methyl 3-(3-methyl-1H-pyrazol-1-yl)propanoate]", "values": [
      {"measurement": "Ki", "result": "< 10", "unit": "nM"}
    ]}
  ]
}
